The values below come from patent US9212182B2, “Bicyclic sulfonamide compounds as sodium channel inhibitors” (AMGEN INC., priority 2013, dated 2015).

Each structure is given as a SMILES string. Where two headings read alike, the source gives them in different places.

The IC50 is the concentration that gives 50% inhibition. Lower therefore signals greater potency.

The assay addresses Nav 1.7 (Homo sapiens (Human), UniProt Q15858). In words: in-vitro Nav 1.7 PX (IC50). In kind it is cell-based.

Nav 1.7, sequence (Q15858 whole entry): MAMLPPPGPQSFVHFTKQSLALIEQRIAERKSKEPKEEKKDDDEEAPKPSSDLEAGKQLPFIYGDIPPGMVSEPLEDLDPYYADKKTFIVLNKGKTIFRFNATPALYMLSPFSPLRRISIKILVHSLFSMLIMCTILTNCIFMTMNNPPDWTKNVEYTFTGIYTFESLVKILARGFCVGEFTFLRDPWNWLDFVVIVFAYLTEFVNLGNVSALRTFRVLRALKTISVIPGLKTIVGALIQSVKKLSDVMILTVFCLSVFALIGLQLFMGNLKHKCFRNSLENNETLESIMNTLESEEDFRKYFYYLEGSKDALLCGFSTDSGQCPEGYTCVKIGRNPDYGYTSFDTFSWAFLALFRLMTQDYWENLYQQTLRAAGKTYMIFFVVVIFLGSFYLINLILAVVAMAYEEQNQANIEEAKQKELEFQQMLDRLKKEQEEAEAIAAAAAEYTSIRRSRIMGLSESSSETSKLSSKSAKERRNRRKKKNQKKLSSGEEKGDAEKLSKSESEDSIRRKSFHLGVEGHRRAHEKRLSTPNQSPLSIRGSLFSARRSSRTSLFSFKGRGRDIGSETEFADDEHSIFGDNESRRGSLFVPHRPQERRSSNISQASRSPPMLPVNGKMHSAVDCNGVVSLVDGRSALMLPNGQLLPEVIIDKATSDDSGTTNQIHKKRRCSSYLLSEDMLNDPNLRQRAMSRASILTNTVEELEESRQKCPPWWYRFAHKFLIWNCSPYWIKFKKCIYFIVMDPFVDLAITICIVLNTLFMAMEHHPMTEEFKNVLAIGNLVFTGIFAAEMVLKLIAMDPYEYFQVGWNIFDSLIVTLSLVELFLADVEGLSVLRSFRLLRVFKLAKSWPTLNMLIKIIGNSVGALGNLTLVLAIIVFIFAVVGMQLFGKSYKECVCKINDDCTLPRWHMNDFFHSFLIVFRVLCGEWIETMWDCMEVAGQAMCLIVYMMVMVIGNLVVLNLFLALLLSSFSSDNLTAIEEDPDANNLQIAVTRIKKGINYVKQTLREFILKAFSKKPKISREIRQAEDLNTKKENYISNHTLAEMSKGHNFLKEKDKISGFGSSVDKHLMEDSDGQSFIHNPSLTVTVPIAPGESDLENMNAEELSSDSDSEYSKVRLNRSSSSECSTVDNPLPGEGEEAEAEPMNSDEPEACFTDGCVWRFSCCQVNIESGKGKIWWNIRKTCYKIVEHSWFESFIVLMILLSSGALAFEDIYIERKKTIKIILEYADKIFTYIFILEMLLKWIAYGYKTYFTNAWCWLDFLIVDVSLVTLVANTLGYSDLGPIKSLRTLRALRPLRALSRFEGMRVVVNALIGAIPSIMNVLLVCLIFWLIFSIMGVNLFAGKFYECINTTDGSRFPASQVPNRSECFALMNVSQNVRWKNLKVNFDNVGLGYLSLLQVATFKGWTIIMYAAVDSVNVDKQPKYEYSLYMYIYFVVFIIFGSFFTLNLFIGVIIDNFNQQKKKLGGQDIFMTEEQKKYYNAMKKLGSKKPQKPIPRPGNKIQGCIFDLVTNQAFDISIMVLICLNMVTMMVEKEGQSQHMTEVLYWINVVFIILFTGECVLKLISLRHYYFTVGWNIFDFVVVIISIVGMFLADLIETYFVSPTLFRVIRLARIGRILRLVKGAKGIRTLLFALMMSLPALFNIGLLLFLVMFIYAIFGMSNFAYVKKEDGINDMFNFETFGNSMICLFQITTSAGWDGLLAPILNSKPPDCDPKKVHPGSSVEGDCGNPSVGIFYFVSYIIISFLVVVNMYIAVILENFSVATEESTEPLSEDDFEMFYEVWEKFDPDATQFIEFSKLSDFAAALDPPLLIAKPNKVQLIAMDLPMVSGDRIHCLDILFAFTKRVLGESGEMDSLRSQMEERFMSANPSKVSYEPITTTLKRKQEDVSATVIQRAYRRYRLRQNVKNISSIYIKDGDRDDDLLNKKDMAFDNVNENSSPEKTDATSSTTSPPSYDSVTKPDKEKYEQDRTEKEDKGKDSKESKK

`COc1nc(O[C@H]2C[C@H]3CC[C@@H]2C3)c(Cl)cc1-n1c(=O)ccc2cc(S(=O)(=O)Nc3ccon3)ccc21` [Example 1223, 1-(6-((1R,2S,4S)-bicyclo[2.2.1]hept-2-yloxy)-5-chloro-2-methoxy-3-pyridinyl)-N-3-isoxazolyl-2-oxo-1,2-dihydro-6-quinolinesulfonamide] yielded an IC50 of 0.416 µM.

`COc1ccc(-c2cc(OC)c(-n3c(=O)ccc4cc(S(=O)(=O)Nc5ccon5)ccc43)cc2F)cc1` [Example 954, 1-(2-fluoro-4′,5-dimethoxy-4-biphenylyl)-N-3-isoxazolyl-2-oxo-1,2-dihydro-6-quinolinesulfonamide] yielded an IC50 (in-vitro Nav 1.7 PX data) of 0.071 µM.

Consider `COc1cc(-c2cccc(C(F)(F)F)n2)c(F)cc1-n1c(=O)ccc2cc(S(=O)(=O)Nc3ccon3)ccc21` [Example 794, 1-(5-fluoro-2-methoxy-4-(6-(trifluoromethyl)-2-pyridinyl)phenyl)-N-3-isoxazolyl-2-oxo-1,2-dihydro-6-quinolinesulfonamide], for which it took 0.096 µM to reach half-maximal inhibition (in-vitro Nav 1.7 PX data) (IC50). The IC50 values of the last two compounds are within 1.5-fold of each other.

Take `COc1cc(C)cc(-c2cc(OC)c(-n3c(=O)ccc4cc(S(=O)(=O)Nc5ncccn5)ccc43)cc2C)c1` [Example 967, 1-(3′,5-dimethoxy-2,5′-dimethyl-4-biphenylyl)-2-oxo-N-2-pyrimidinyl-1,2-dihydro-6-quinolinesulfonamide]: inhibition (in-vitro Nav 1.7 PX data) was half-maximal at 0.014 µM (IC50).

In the case of `COc1ccc(-c2cccc(C(F)(F)F)c2)cc1-n1c(=O)ccc2cc(S(=O)(=O)Nc3ccon3)ccc21` [Example 312, N-3-isoxazolyl-1-(4-methoxy-3′-(trifluoromethyl)-3-biphenylyl)-2-oxo-1,2-dihydro-6-quinolinesulfonamide], the IC50 is 0.022 µM.

With `COc1nc(OCc2ccc(F)c(F)c2F)c(Cl)cc1-n1c(=O)ccc2cc(S(=O)(=O)Nc3ccon3)ccc21` [Example 1216, 1-(5-chloro-2-methxy-6-((2,3,4-trifluorobenzyl)oxy)-3-pyridinyl)-N-3-isoxazolyl-2-oxo-1,2-dihydro-6-quinolinesulfonamide], it took 0.119 µM to reach half-maximal inhibition (IC50). This IC50 is about 5.4-fold higher than that of the compound before.

`COc1cc(C#CC2CCCC2)c(F)cc1-n1c(=O)cnc2cc(S(=O)(=O)Nc3ccon3)ccc21` [Example 1142, 1-(4-(cyclopentylethynyl)-5-fluoro-2-methoxyphenyl)-N-3-isoxazolyl-2-oxo-1,2-dihydro-6-quinoxalinesulfonamide]: the IC50 was 0.079 µM.

For `COc1cc(-c2cccc(C(F)(F)F)c2)c(F)cc1-n1c(=O)ccc2cc(S(=O)(=O)Nc3ncc(F)cn3)ccc21` [Example 802, 1-(2-fluoro-5-methoxy-3′-(trifluoromethyl)-4-biphenylyl)-N-(5-fluoro-2-pyrimidinyl)-2-oxo-1,2-dihydro-6-quinolinesulfonamide], the IC50 (in-vitro Nav 1.7 PX data) stood at 0.021 µM.

Turning to `COc1cc(-c2ccc(Cl)c(C)c2)c(Cl)cc1-n1c(=O)ccc2cc(S(=O)(=O)Nc3ccon3)ccc21` (atropisomer, axis not shown; (P)) [Example 471, (P)-1-(2,4′-dichloro-5-methoxy-3′-methyl-[1,1′-biphenyl]-4-yl)-N-(isoxazol-3-yl)-2-oxo-1,2-dihydroquinoline-6-sulfonamide], the concentration for half-maximal inhibition (IC50) turned out to be 0.008 µM.

`COc1nc(OCC2CC2)c(Cl)cc1-n1c(=O)ccc2cc(S(=O)(=O)Nc3ccon3)ccc21` [638/819, 1-(5-chloro-6-(cyclopropylmethoxy)-2-methoxy-3-pyridinyl)-N-3-isoxazolyl-2-oxo-1,2-dihydro-6-quinolinesulfonamide] registered a concentration for half-maximal inhibition (IC50) (in-vitro Nav 1.7 PX data) of 0.825 µM.

For `COc1cc(-c2ccc(F)c(F)c2)c(F)cc1-n1c(=O)ccc2cc(S(=O)(=O)Nc3cc(C)ncn3)ccc21` [Example 938, N-(6-methyl-4-pyrimidinyl)-2-oxo-1-(2,3′,4′-trifluoro-5-methoxy-4-biphenylyl)-1,2-dihydro-6-quinolinesulfonamide], it took 0.047 µM to reach half-maximal inhibition (in-vitro Nav 1.7 PX data) (IC50).

As to `COc1cc(-c2ccc(Cl)c(C)c2)c(F)cc1-n1c(=O)ccc2cc(S(=O)(=O)Nc3ccc(F)cn3)ccc21` (atropisomer, axis not shown; (P)) [Example 693, (P)-1-(4′-chloro-2-fluoro-5-methoxy-3′-methyl-4-biphenylyl)-N-(5-fluoro-2-pyridinyl)-2-oxo-1,2-dihydro-6-quinolinesulfonamide], the half-inhibitory concentration (IC50) (in-vitro Nav 1.7 PX data) was found to be 0.186 µM. Compared with the last compound, the IC50 is about 4-fold higher.

`COc1ccc(-c2ccnc(F)c2)cc1-n1c(=O)ccc2cc(S(=O)(=O)Nc3ccon3)ccc21` [Example 496, 1-(5-(2-fluoro-4-pyridinyl)-2-methoxyphenyl)-N-3-isoxazolyl-2-oxo-1,2-dihydro-6-quinolinesulfonamide] showed an IC50 of 2.77 µM.

Take `COc1nc(-c2cc(F)cc(F)c2)c(Cl)cc1-n1c(=O)ccc2cc(S(=O)(=O)Nc3ccon3)ccc21` (atropisomer, axis not shown; (M)) [Example 666, (M)-1-(5-chloro-6-(3,5-difluorophenyl)-2-methoxy-3-pyridinyl)-N-3-isoxazolyl-2-oxo-1,2-dihydro-6-quinolinesulfonamide]: the half-maximal inhibitory concentration (IC50) (in-vitro Nav 1.7 PX data) came to 1.06 µM.

With `COc1cc(-c2cccc(C(F)(F)F)c2)c(F)cc1-n1c(=O)ccc2cc(S(=O)(=O)Nc3ncco3)ccc21` [Example 806, 1-(2-fluoro-5-methoxy-3′-(trifluoromethyl)-4-biphenylyl)-N-1,3-oxazol-2-yl-2-oxo-1,2-dihydro-6-quinolinesulfonamide], for the setting “in-vitro Nav 1.7 PX data”, the IC50 came out at 0.028 µM. Compared with the last compound, the IC50 is about 38-fold lower.

Regarding `COc1cc(-c2ccc(-n3c(=O)cnc4cc(S(=O)(=O)Nc5ccon5)ccc43)c(OC)c2)ccc1C` [Example 1197, 1-(3,3′-dimethoxy-4′-methyl-4-biphenylyl)-N-3-isoxazolyl-2-oxo-1,2-dihydro-6-quinoxalinesulfonamide], the IC50 amounted to 0.146 µM.

On to `COc1nc(-c2cc(F)cc(Cl)c2)c(Cl)cc1-n1c(=O)ccc2cc(S(=O)(=O)Nc3ccon3)ccc21` [Example 449, 1-(5-chloro-6-(3-chloro-5-fluorophenyl)-2-methoxypyridin-3-yl)-N-(isoxazol-3-yl)-2-oxo-1,2-dihydroquinoline-6-sulfonamide], for which the IC50 (in-vitro PatchXpress (PX)) came to 0.085 µM. This counts as double-digit nanomolar.

In turn, `COc1cc(-c2cc(F)cc(Cl)c2)c(F)cc1-n1c(=O)ccc2cc(S(=O)(=O)Nc3ccon3)ccc21` (atropisomer, axis not shown; (M)) [Example 478, (M)-1-(3′-chloro-2,5′-difluoro-5-methoxy-4-biphenylyl)-N-3-isoxazolyl-2-oxo-1,2-dihydro-6-quinolinesulfonamide] returned a half-maximal inhibitory concentration (IC50) of 0.816 µM.

Where the note is “in-vitro Nav 1.7 PX data”, `COc1ccc(-c2ccc(C(F)(F)F)cc2)cc1-n1c(=O)ccc2cc(S(=O)(=O)Nc3ccon3)ccc21` [Example 856, N-3-isoxazolyl-1-(4-methoxy-4′-(trifluoromethyl)-3-biphenylyl)-2-oxo-1,2-dihydro-6-quinolinesulfonamide] returned an IC50 of 0.035 µM.

Compound `COc1ccc(-c2cc(OC)c(-n3c(=O)ccc4cc(S(=O)(=O)Nc5ccon5)ccc43)cc2F)cc1C` [Example 749, 1-(2-fluoro-4′,5-dimethoxy-3′-methyl-4-biphenylyl)-N-3-isoxazolyl-2-oxo-1,2-dihydro-6-quinolinesulfonamide] came in with a half-maximal inhibitory concentration (IC50) (in-vitro Nav 1.7 PX data) of 0.048 µM.

`COc1cc(-c2ccc(C(F)(F)F)cc2)c(F)cc1-n1c(=O)ccc2cc(S(=O)(=O)Nc3cccnn3)ccc21` [Example 795, 1-(2-fluoro-5-methoxy-4′-(trifluoromethyl)-4-biphenylyl)-2-oxo-N-3-pyridazinyl-1,2-dihydro-6-quinolinesulfonamide] yielded an IC50 (in-vitro Nav 1.7 PX data) of 0.031 µM.

Compound `COc1cc(-c2cccc(C3CC3)c2)c(F)cc1-n1c(=O)ccc2cc(S(=O)(=O)Nc3ccon3)ccc21` [Example 790, 1-(3′-cyclopropyl-2-fluoro-5-methoxy-4-biphenylyl)-N-3-isoxazolyl-2-oxo-1,2-dihydro-6-quinolinesulfonamide] came in with a half-maximal inhibitory concentration (IC50) (in-vitro Nav 1.7 PX data) of 0.005 µM.

The compound `COc1cc(-c2ccc(F)cc2)c(F)cc1-n1c(=O)ccc2cc(S(=O)(=O)Nc3cc(C)ncn3)ccc21` [Example 772, 1-(2,4′-difluoro-5-methoxy-4-biphenylyl)-N-(6-methyl-4-pyrimidinyl)-2-oxo-1,2-dihydro-6-quinolinesulfonamide] yielded an IC50 (in-vitro Nav 1.7 PX data) of 0.232 µM.

Compound `COc1ccc(-c2ccc(Cl)c(C)c2)cc1-n1c(=O)ccc2cc(S(=O)(=O)Nc3ccon3)ccc21` [Example 875, 1-(4′-chloro-4-methoxy-3′-methyl-3-biphenylyl)-N-3-isoxazolyl-2-oxo-1,2-dihydro-6-quinolinesulfonamide] had an IC50 (in-vitro Nav 1.7 PX data) of 0.015 µM. This IC50 is about 15-fold lower than that of the compound before.

`COc1cc(Br)c(F)cc1-n1c(=O)ccc2cc(S(=O)(=O)Nc3cc(OCC4CCC4)ncn3)ccc21` (atropisomer, axis not shown; (P)) [Example 1184, (P)-1-(4-bromo-5-fluoro-2-methoxyphenyl)-N-(6-(cyclobutylmethoxy)-4-pyrimidinyl)-2-oxo-1,2-dihydro-6-quinolinesulfonamide] registered an IC50 of 3.36 µM.

Compound `COc1cc(-c2cccc(C)c2)c(F)cc1-n1c(=O)ccc2cc(S(=O)(=O)Nc3ncc(F)cn3)ccc21` [Example 1109, 1-(2-fluoro-5-methoxy-3′-methyl-4-biphenylyl)-N-(5-fluoro-2-pyrimidinyl)-2-oxo-1,2-dihydro-6-quinolinesulfonamide] displayed an IC50 (in-vitro Nav 1.7 PX data) of 0.02 µM.

Consider `COc1cc(-c2ccc(Cl)cc2)ccc1-n1c(=O)ccc2cc(S(=O)(=O)Nc3cc(C)ncn3)ccc21` [Example 767, 1-(4′-chloro-3-methoxy-4-biphenylyl)-N-(6-methyl-4-pyrimidinyl)-2-oxo-1,2-dihydro-6-quinolinesulfonamide], for which the IC50 (in-vitro Nav 1.7 PX data) came to 0.054 µM.

In turn, `COc1cc(-c2ccc(OC)c(-n3c(=O)ccc4cc(S(=O)(=O)Nc5ccon5)ccc43)c2)ccc1F` [Example 889, 1-(4′-fluoro-3′,4-dimethoxy-3-biphenylyl)-N-3-isoxazolyl-2-oxo-1,2-dihydro-6-quinolinesulfonamide] displayed a half-inhibitory concentration (IC50) (in-vitro Nav 1.7 PX data) of 0.184 µM.

The compound `COc1ccc(-c2ccc(OC)c(-n3c(=O)ccc4cc(S(=O)(=O)Nc5ccon5)ccc43)c2)cc1Cl` [Example 884, 1-(3′-chloro-4,4′-dimethoxy-3-biphenylyl)-N-3-isoxazolyl-2-oxo-1,2-dihydro-6-quinolinesulfonamide] came in with an IC50 (in-vitro Nav 1.7 PX data) of 0.035 µM.

With `CC(C#N)Oc1cc(Br)c(F)cc1-n1c(=O)ccc2cc(S(=O)(=O)Nc3ccon3)ccc21` (stereo not drawn) [Example 680, 1-(4-bromo-2-(1-cyanoethoxy)-5-fluorophenyl)-N-(isoxazol-3-yl)-2-oxo-1,2-dihydroquinoline-6-sulfonamide], inhibition (in-vitro Nav 1.7 PX data (PatchXpress)) was half-maximal at 25.4 µM (IC50).
